{"source": "patent US11752147B2", "about": "“Pharmaceutical composition for the treatment of pain” (AZIENDE CHIMICHE RIUNITE ANGELINI FRANCESCO A.C.R.A.F. …, priority 2015, dated 2023)", "key": {"[1]": {"tested_on": "acetic acid-induced writhing in mice", "assay": "Acetic acid-induced writhing test in mice", "conditions": "vs vehicle", "quoted_text": "(§1) The test compounds were evaluated in the model of acetic acid-induced writhing in mice (Stock J. L. et al., J. Clin. Inv. 2001, 107: 325 331).\n(§2) Writhing test is a chemical method used to induce pain of peripheral origin by injection of acetic acid in mice. Analgesic activity is inferred from decrease in the frequency of writhing.\n(§3) This test allowed evaluation of the antinociceptive activity of the compounds of the invention in a model of inflammatory pain.\n(§4) Writhing is defined as a stretch, tension to one side, extension of hind legs, contraction of the abdomen so that the abdomen of mice touches the floor, turning the trunk (twist).\n(§5) Male CD-1 mice weighing 20-25 g were used for the test.\n(§6) One hour after the treatment, an intraperitoneal injection of acetic acid (0.7% v/v in physiological saline, 16 μl/g of body weight) was given to the mice to induce inflammatory pain and to check the effects of the test compound on the nociceptive response.\n(§7) Five minutes after the administration of acetic acid and for the following 10 minutes the number of writhes was measured, which represents the parameter for evaluation of the nociceptive response. The analgesic activity is evaluated as % inhibition."}, "[2]": {"tested_on": "allodynia induced by ligature of the sciatic nerve in rats", "assay": "Ligature of the sciatic nerve in rats (allodynia, von Frey)", "assay_type": "in vivo", "conditions": "one hour after administration, vs vehicle", "procedure": "Male CD rats weighing 200-250 g on arrival were used.\nThe allodynia was induced by ligature under anaesthesia of the sciatic nerve of the left hind leg [Seltzer Z, Dubner R, Shir Y. A novel behavioural model of neuropathic pain disorders produced in rats by partial sciatic nerve injury. Pain 1990; 43: 205-218; Bennet G J, Xie Y K. A peripheral mononeuropathy in rat that produces disorders of pain sensation like those seen in man. Pain 1988; 33: 87-107].\nThe pain threshold was measured with a von Frey machine, which makes it possible, by applying a gradual increase in pressure to the paw of the left hind leg of the rat, to record the nociceptive response, expressed in grams, corresponding to the moment at which the animal withdraws the leg.\nAfter-treatment measurement was made at one hour following administration. The analgesic activity is evaluated as % reversal."}, "[3]": {"tested_on": "acetic acid-induced writhing in mice", "conditions": "mouse, in vivo, po", "quoted_text": "as §1, §2, §3, §4, §5, §6, §7"}}, "data": [{"smiles": "O=c1n(CCCN2CCN(c3cccc(Cl)c3)CC2)nc2ccccn12", "note": "[Trazodone, trazodone]", "values": [{"measurement": "Writhing number reduction %", "setting": "[1]; Table 2 TEST 1 (FIG. 2a), 0.15 mg/kg oral", "value": 16.0, "unit": "%"}, {"measurement": "Writhing number reduction %", "setting": "[1]; Table 2 TEST 2 (FIG. 2b), 0.5 mg/kg oral", "value": 44.4, "unit": "%"}, {"measurement": "Writhing number reduction %", "setting": "[1]; Table 2 TEST 3 (FIG. 2c), 1.5 mg/kg oral", "value": 57.1, "unit": "%"}, {"measurement": "Writhing number reduction %", "setting": "[1]; Table 3 TEST 1 RATIO 1:20, 0.075 mg/kg oral", "value": 2.1, "unit": "%"}, {"measurement": "Writhing number reduction %", "setting": "[1]; Table 3 TEST 2 RATIO 1:10, 0.15 mg/kg oral", "value": 16.0, "unit": "%"}, {"measurement": "Writhing number reduction %", "setting": "[1]; Table 3 TEST 3 RATIO 1:5, 0.15 mg/kg oral", "value": 16.3, "unit": "%"}, {"measurement": "Writhing number reduction %", "setting": "[1]; Table 3 TEST 4 RATIO 1:1, 0.15 mg/kg trazodone oral", "value": 12.2, "unit": "%"}, {"measurement": "Writhing number reduction %", "setting": "[1]; Table 3 TEST 5 RATIO 5:1, 0.75 mg/kg oral", "value": 57.4, "unit": "%"}, {"measurement": "Writhing number reduction %", "setting": "[1]; Table 3 TEST 6 RATIO 10:1, 1.5 mg/kg oral", "value": 59.7, "unit": "%"}, {"measurement": "Reversal %", "setting": "[2]; 0.3 mg/kg", "value": 3.1, "unit": "%"}, {"measurement": "ED50", "setting": "[3]", "value": 1.2, "unit": "mg/kg"}]}, {"smiles": "NCC1(CC(=O)O)CCCCC1", "note": "[Gabapentin, gabapentin]", "values": [{"measurement": "Writhing number reduction %", "setting": "[1]; Table 2 TEST 1 (FIG. 2a), 1.5 mg/kg oral", "value": 27.1, "unit": "%"}, {"measurement": "Writhing number reduction %", "setting": "[1]; Table 2 TEST 2 (FIG. 2b), 5 mg/kg oral", "value": 38.1, "unit": "%"}, {"measurement": "Writhing number reduction %", "setting": "[1]; Table 2 TEST 3 (FIG. 2c), 15 mg/kg oral", "value": 45.9, "unit": "%"}, {"measurement": "Writhing number reduction %", "setting": "[1]; Table 3 TEST 1 RATIO 1:20, 1.5 mg/kg oral", "value": 29.2, "unit": "%"}, {"measurement": "Writhing number reduction %", "setting": "[1]; Table 3 TEST 2 RATIO 1:10, 1.5 mg/kg oral", "value": 27.1, "unit": "%"}, {"measurement": "Writhing number reduction %", "setting": "[1]; Table 3 TEST 3 RATIO 1:5, 0.75 mg/kg oral", "value": 22.4, "unit": "%"}, {"measurement": "Writhing number reduction %", "setting": "[1]; Table 3 TEST 4 RATIO 1:1, 0.15 mg/kg gabapentin oral", "value": 28.3, "unit": "%"}, {"measurement": "Writhing number reduction %", "setting": "[1]; Table 3 TEST 5 RATIO 5:1, 0.15 mg/kg oral", "value": 30.2, "unit": "%"}, {"measurement": "Writhing number reduction %", "setting": "[1]; Table 3 TEST 6 RATIO 10:1, 0.15 mg/kg oral", "value": 27.2, "unit": "%"}, {"measurement": "Reversal %", "setting": "[2]; 3.0 mg/kg", "value": 3.7, "unit": "%"}, {"measurement": "Reversal %", "setting": "[2]; 100 mg/kg (effective amount)", "value": 37.0, "unit": "%"}]}]}
